# Non-standard residues stand in square brackets, D forms with d. Residues, ends and D or L forms follow the SMILES beside them. Nva = CCC[C@H](N)C(=O)O
# Assays:
# AdipoR1 = target: T1, AdipoR1 (Homo sapiens, UniProt Q96A54); assay: Competition binding assay vs globular adiponectin (western blot), AdipoR1 overexpression cells; conditions: JT003 4 h, then 50 μg ml−1 gAd155–161 4 h, in words
# T1 construct: His; host or cells: HEK293
# T1 sequence (Q96A54 1-375): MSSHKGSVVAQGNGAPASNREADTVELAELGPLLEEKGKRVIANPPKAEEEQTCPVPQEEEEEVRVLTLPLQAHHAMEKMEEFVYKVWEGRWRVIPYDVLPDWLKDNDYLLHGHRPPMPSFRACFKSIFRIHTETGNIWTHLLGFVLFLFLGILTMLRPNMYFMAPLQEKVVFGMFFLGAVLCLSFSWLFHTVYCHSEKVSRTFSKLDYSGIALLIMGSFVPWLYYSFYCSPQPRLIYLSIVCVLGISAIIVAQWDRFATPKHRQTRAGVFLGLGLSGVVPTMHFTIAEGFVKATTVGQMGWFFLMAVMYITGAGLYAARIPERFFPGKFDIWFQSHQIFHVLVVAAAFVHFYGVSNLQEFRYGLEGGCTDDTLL
# Protocol: Different concentration of JT003 were incubated with AdipoR1 or AdipoR2 overexpression HEK293 cell line for 4 h. After that, 50 μg ml^−1 gAd155–161 were added for another 4 h incubation. The binding of gAd155–161 to the cells were measured via western blot assay.
# HFD induced NASH mice = assay: HFD mice: liver histology (HE, PAS, Oil Red O); format: in vivo, mouse; conditions: JT003 500 μg kg−1 i.p. daily 4 weeks, in words
# Protocol: (§1) The NASH model was conducted with feeding a HFD for 16 weeks combine with a MCD diet (Methionine/Choline Deficient Diet, Medicience, China) in the last 4 weeks. Mice administered a MCS diet (Methionine/Choline Sufficient Diet, Medicience, China) serves as control group. NAFLD or NASH mice treated with JT003 for 4 weeks were used to evaluate the pharmacological effects (n = 6; 500 μg kg^−1; daily intraperitoneal injection). Food and water were provided ad libitum. The body weight of mice was examined every 3 days. The diet was renewed every 7 days. JT003 was diluted in PBS.
# (§2) The levels of TG and HYP in liver tissue were detected with certain commercial assay kit (Nanjing Jiancheng Bioengineering Institute, China). Formalin-fixed liver tissues were embedded in paraffin, sectioned into 5 μm slices. After deparaffinization and rehydration of the section slices, they were stained with Haematoxylin and Eosin or Periodic Acid-Schiff. For the detection of liver collagen content, Sirius Red staining for collagen was performed. OCT-embedded frozen liver tissues were sectioned into 12 μm slices, and Oil Red O staining was performed. The cryostat-cut slices were stained with freshly prepared Oil Red O working solution for 7 min Two independent experimenters who were blinded to the treatment evaluated the staining slides and analyzed the score for steatosis, glucogen accumulation and collagen proliferation area.
# [1] = tested on: liver gene expression of HFD induced NASH mice; assay: HFD mice: liver mRNA, quantitative RT-PCR; format: in vivo, mouse; conditions: for CD14 liver mRNA, relative expression, Supplementary Figure 11b / F4/80 liver mRNA, relative expression, Supplementary Figure 11b / IL-1b liver mRNA, relative expression, Supplementary Figure 11b / IL-6 liver mRNA, relative expression, Supplementary Figure 11b / LY6G liver mRNA, relative expression, Supplementary Figure 11b / iNOS liver mRNA, relative expression, Supplementary Figure 11b: HFD + JT003 mice
# Protocol: as §1
# Liver total RNA was extracted by using Trizol reagent following the manufacture’s instruction (TransGen Biotech, China). The concentration of RNA was measured by Nanodrop 2000 (ThermoFisher Scientific, USA). cDNA was transcribed from 10ug total RNA with First Strand cDNA synthesis Super Mix (TransGen Biotech, China). The cDNA was diluted 1/50 and 1.0 uL were used as a template for qPCR. qPCR was performed with SYBR Green qPCR Super Mix (TransGen Biotech, China) in the Light Cycler 480 Real-Time PCR System (Roche, Swiss). Reference gene β-actin was used for data normalization. mRNA expression was analyzed with specific primers listed in Supplementary Table 2.
# HFD + MCD diet NASH mice = assay: HFD combined with MCD diet NASH mice: weight gain, HE steatosis area; format: in vivo, mouse; conditions: HFD 16 weeks + MCD diet last 4 weeks; compared with ADP355; in words
# Protocol: as §1
# as §2, with “OCT-embedded frozen liver tissues were sectioned into 12 μm slices, and Oil Red O staining was performed.” left out
# [2] = tested on: CCl4 induced liver fibrosis mice; assay: CCl4 mice: serum ALT, AST and liver HYP; format: in vivo, mouse; parameters: AST, Supplementary Figure 14 / HYP, Supplementary Figure 14: unit not given here; conditions: for HYP, Supplementary Figure 14 / AST, Supplementary Figure 14: CCl4 + JT003 mice; for HYP, Supplementary Figure 14: liver; for AST, Supplementary Figure 14: serum
# Protocol: Male mice liver fibrosis was induced by intraperitoneal injection of 20% CCl4 (Sigma, USA) diluted in corn oil (Aladdin, China) every 3 days for 6 weeks (n = 6; 5 ml kg^−1 body weight). Mice injected with equivalent volume of corn oil serves as control group (n = 6). Liver fibrosis mice treated with JT003 for 3 weeks were used to evaluated the pharmacological effects (n = 6; 500 μg kg^−1; daily intraperitoneal injection).
# The levels of ALT, AST, TC and TG in serum were determined using certain commercial assay kits (Nanjing Jiancheng Bioengineering Institute, China). Fasting adiponectin and insulin were quantified in plasma samples using corresponding commercially available Elisa kits (Cloud-Clone Crop, USA).
# as §2
# [3] = HFD mice, liver, JT003 500 μg kg−1, in words
structure (smiles),measurement,setting,value
CCC[C@H](NC(=O)[C@@H]1CCCN1)C(=O)N[C@@H](CC(C)C)C(=O)N[C@@H](Cc1ccc(O)cc1)C(=O)N[C@@H](Cc1ccc(O)cc1)C(=O)N[C@@H](Cc1ccccc1)C(=O)N[C@@H](C)C(N)=O [JT003] (H-P[Nva]LYYFA-NH2),"competitive binding to globular adiponectin, AdipoR1 overexpression cells",AdipoR1,more JT003 cause less globular adiponectin binding
same,glycogen over accumulation (PAS staining and hepatocyte glycogen analysis),HFD induced NASH mice,largely eliminated
same,lipid droplets in the liver (Oil red o staining),HFD induced NASH mice,remarkably decreased lipid droplets
same,steatosis and inflammation area (HE staining),HFD induced NASH mice,decreased
same,"CD14 liver mRNA, relative expression, Supplementary Figure 11b",[1]; replicate 1,0.836
same,"F4/80 liver mRNA, relative expression, Supplementary Figure 11b",[1]; replicate 1,1.324
same,"IL-1b liver mRNA, relative expression, Supplementary Figure 11b",[1]; replicate 1,0.2358
same,"IL-6 liver mRNA, relative expression, Supplementary Figure 11b",[1]; replicate 1,0.3838
same,"LY6G liver mRNA, relative expression, Supplementary Figure 11b",[1]; replicate 1,1.539
same,"iNOS liver mRNA, relative expression, Supplementary Figure 11b",[1]; replicate 1,0.7587
same,"CD14 liver mRNA, relative expression, Supplementary Figure 11b",[1]; replicate 2,0.7038
same,"F4/80 liver mRNA, relative expression, Supplementary Figure 11b",[1]; replicate 2,1.41
same,"IL-1b liver mRNA, relative expression, Supplementary Figure 11b",[1]; replicate 2,0.3558
same,"IL-6 liver mRNA, relative expression, Supplementary Figure 11b",[1]; replicate 2,0.9338
same,"LY6G liver mRNA, relative expression, Supplementary Figure 11b",[1]; replicate 2,2.089
same,"iNOS liver mRNA, relative expression, Supplementary Figure 11b",[1]; replicate 2,1.076
same,"CD14 liver mRNA, relative expression, Supplementary Figure 11b",[1]; replicate 3,0.548
same,"F4/80 liver mRNA, relative expression, Supplementary Figure 11b",[1]; replicate 3,0.6014
same,"IL-1b liver mRNA, relative expression, Supplementary Figure 11b",[1]; replicate 3,0.1532
same,"IL-6 liver mRNA, relative expression, Supplementary Figure 11b",[1]; replicate 3,0.2832
same,"LY6G liver mRNA, relative expression, Supplementary Figure 11b",[1]; replicate 3,0.8264
same,"iNOS liver mRNA, relative expression, Supplementary Figure 11b",[1]; replicate 3,1.076
same,"CD14 liver mRNA, relative expression, Supplementary Figure 11b",[1]; replicate 4,0.7504
same,"F4/80 liver mRNA, relative expression, Supplementary Figure 11b",[1]; replicate 4,1.0118
same,"IL-1b liver mRNA, relative expression, Supplementary Figure 11b",[1]; replicate 4,0.1494
same,"IL-6 liver mRNA, relative expression, Supplementary Figure 11b",[1]; replicate 4,0.2961
same,"LY6G liver mRNA, relative expression, Supplementary Figure 11b",[1]; replicate 4,2.4
same,"iNOS liver mRNA, relative expression, Supplementary Figure 11b",[1]; replicate 4,0.5084
same,"CD14 liver mRNA, relative expression, Supplementary Figure 11b",[1]; replicate 5,0.8521
same,"F4/80 liver mRNA, relative expression, Supplementary Figure 11b",[1]; replicate 5,0.7678
same,"IL-1b liver mRNA, relative expression, Supplementary Figure 11b",[1]; replicate 5,0.1331
same,"IL-6 liver mRNA, relative expression, Supplementary Figure 11b",[1]; replicate 5,0.3878
same,"iNOS liver mRNA, relative expression, Supplementary Figure 11b",[1]; replicate 5,1.435
same,"F4/80 liver mRNA, relative expression, Supplementary Figure 11b",[1]; replicate 6,1.044
same,"IL-6 liver mRNA, relative expression, Supplementary Figure 11b",[1]; replicate 6,0.3111
same,G6Pase expression level in liver,"[1]; HFD mice, JT003 500 μg kg−1, compared to HFD mice, in words",significantly elevated
same,expression of antioxidant enzymes (SOD and CAT) and mitochondrial biogenesis regulators (PGC1α and PGC1β),[1]; [3],accelerated prominently
same,"expression of genes related to fatty acid synthesis (PPARγ, ACC1, FASN, DGAT1, FAS, SCD1, ASCL3), fatty acid uptake (CD36) and cholesterol synthesis (HMGCR, SREBP-1C)",[1]; [3],significantly inhibited
same,"expression of genes responsible for fatty acid β-oxidation (LCAD, MCAD, UCP2, CPT1α)",[1]; [3],much higher
same,"overexpression of genes related to inflammation (LY6G, F4/80, IL-6, IL-1β, iNOS, CD14) and ER stress (XBP1, ATF4, CHOP, BID and GRP78)",[1]; [3],suppressed significantly
same,"upregulation of genes related to mitochondrial dysfunction (CYP2E1, BAX, NQO1, SRXN1 and GPX1)",[1]; [3],suppressed remarkably
same,lipid accumulation in HFD combine with MCD diet NASH mouse model,HFD + MCD diet NASH mice,inhibited lipid accumulation significantly with a 20 times lower dosage
same,"HYP, Supplementary Figure 14",[2]; replicate 1,4.654
same,"HYP, Supplementary Figure 14",[2]; replicate 2,11.7831
same,"HYP, Supplementary Figure 14",[2]; replicate 3,12.1297
same,"AST, Supplementary Figure 14",[2]; replicate 1,54.5376
same,"AST, Supplementary Figure 14",[2]; replicate 2,45.2431
same,"AST, Supplementary Figure 14",[2]; replicate 3,22.8392
same,"AST, Supplementary Figure 14",[2]; replicate 4,27.6777
same,"AST, Supplementary Figure 14",[2]; replicate 5,24.2523
same,"AST, Supplementary Figure 14",[2]; replicate 6,28.6282
same,"ALT, AST and HYP activities","[2]; CCl4 mice, JT003 500 μg kg−1 i.p. daily 3 weeks, in words",notably diminished
